As a reminder, the inhibition is the percentage by which the read-out fell short of the control. For orientation: % inhibition means the percentage by which the read-out fell short of the control.

The values below come from US6204293A, “Inhibitors of protein isoprenyl transferases” (University of Pittsburgh, priority 1998, dated 2001).

Where a name gives a salt, the structure may show the parent alone. Read-outs that look alike come from different tables or passages of the source.

For the experiment, the target named is T1, Rat brain protein farnesyltransferase (Rattus norvegicus, UniProt Q02293+Q04631).
T1 construct: Rat brain protein farnesyltransferase activity is measured; from tissue; host or cells: rat brain
T1 sequence (Q02293 whole entry, one chain of several): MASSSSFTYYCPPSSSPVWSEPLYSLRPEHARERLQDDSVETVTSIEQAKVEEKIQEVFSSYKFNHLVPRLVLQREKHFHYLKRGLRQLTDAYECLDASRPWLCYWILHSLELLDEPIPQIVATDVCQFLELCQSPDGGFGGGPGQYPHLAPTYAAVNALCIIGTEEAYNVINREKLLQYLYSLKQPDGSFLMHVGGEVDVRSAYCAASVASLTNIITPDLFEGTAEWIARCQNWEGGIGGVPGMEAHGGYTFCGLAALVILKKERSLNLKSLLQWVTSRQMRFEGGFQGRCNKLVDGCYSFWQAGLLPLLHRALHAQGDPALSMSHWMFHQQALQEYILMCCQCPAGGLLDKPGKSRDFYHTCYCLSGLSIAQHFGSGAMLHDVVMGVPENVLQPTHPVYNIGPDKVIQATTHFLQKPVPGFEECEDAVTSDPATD
Briefly: % inhibition of farnesylation, scintillation proximity assay with biotin-K Ras B fragment. The class given is biochemical. As to conditions: for inhibition at 1 µM: read-out: % inhibition at 1 × 10^-6 M; for inhibition at 1 µM / % inhibition at 1 × 10^-6 M: Table 2, 1 × 10^-6 M; for inhibition at 0.1 µM: read-out: % inhibition at 1 × 10^-7 M. From the text:
The ability of the compounds of the invention to inhibit protein farnesyltransferase or protein geranylgeranyltransferase can be measured according to the method of Moores, et al., J. Biol. Chem. 266: 14603 (1991) or the method of Vogt, et al., J. Biol. Chem. 270:660-664 (1995). In addition, procedures for determination of the inhibition of farnesylation of the oncogene protein Ras are described by Goldstein, et al., J. Biol. Chem., 266:15575-15578 (1991) and by Singh in U.S. Pat. No. 5,245,061.
In addition, in vitro inhibition of protein farnesyltransferase may be measured by the following procedure. Rat brain protein farnesyltransferase activity is measured using an Amersham Life Science commercial scintillation proximity assay kit and substituting a biotin-K Ras B fragment (biotin-[…]CO2 H), 0.1 mM final concentration, for the biotin-lamin substrate provided by Amersham. The enzyme is purified according to Reiss, Y., et al., Cell, 62: 81-88 (1990), utilizing steps one through three.
The % inhibition of protein farnesyltransferase was determined for representative compounds of the invention.
(In general: SPA uses beads or plates that emit light when radiolabelled molecules are held near them.)

On to `CSCC[C@H](NC(=O)c1ccc(COCCC23CC4CC(CC(C4)C2)C3)cc1-c1ccccc1C)C(=O)O` [Example 404, 4-[2-(1-adamantane)ethoxy]methyl-2(2-methylphenyl)benzoylmethionine lithium salt.], for which the inhibition at 1 µM was 98%.

In the case of `CSCC[C@H](NC(=O)c1ccc(COCCCC2CCCCC2)cc1-c1ccccc1C)C(=O)O` [Example 405, 4-(3-cyclohexylpropoxy)methyl-2-(2-methylphenyl)benzoylmethionine lithium salt.], the inhibition at 1 µM was 98%.

Take `CSCC[C@H](NC(=O)c1ccc(CN(Cc2ccccc2)c2ccccc2)cc1-c1ccccc1C)C(=O)O` [Example 406]: the “% inhibition at 1 × 10^-6 M” value worked out at 95%.

As to `CSCC[C@H](NC(=O)c1ccc(COCc2ccc(Br)o2)cc1-c1ccccc1C)C(=O)O` [Example 434, N-[4-(5-Bromofuran-2-ylmethoxymethyl)-2-(2-methylphenyl)benzoyl]methionine lithium salt], the inhibition at 0.1 µM was determined as 93%.

On to `CSCC[C@H](NC(=O)c1ccc(COCc2ccc(CN(C)C)o2)cc1-c1ccccc1C)C(=O)O` [Example 435, N-[4-(5-N,N-dimethylaminomethylfuran-2-ylmethoxymethyl)-2-(2-methylphenyl)benzoyl]methionine], for which the inhibition at 1 µM came to 96%.

`CSCC[C@H](NC(=O)c1ccc(COCc2ccc(-c3cccc(F)c3)o2)cc1-c1ccccc1C)C(=O)O` [Example 436, N-[4-(5-(3-fluorophenyl)furan-2-ylmethoxymethyl)-2-(2-methylphenyl)benzoyl]methionine lithium salt]: the inhibition at 0.1 µM turned out to be 89%.

Consider `CSCC[C@H](NC(=O)c1ccc(COCc2ccc(-c3ccccc3F)o2)cc1-c1ccccc1C)C(=O)O` [Example 437, N-[4-(5-(2-fluorophenyl)furan-2-ylmethoxymethyl)-2-(2-methylphenyl)benzoyl]methionine lithium salt], for which the inhibition at 0.1 µM was 89%.

For `CSCC[C@H](NC(=O)c1ccc(COCc2ccc(-c3ccccc3C(F)(F)F)o2)cc1-c1ccccc1C)C(=O)O` [Example 438, N-[4-(5-(2-trifluoromethylphenyl)furan-2-ylmethoxymethyl)-2-(2-methylphenyl)benzoyl]methionine lithium salt], the inhibition at 0.1 µM came out at 90%.

With `CSCC[C@H](NC(=O)c1ccc(COCc2ccc(-c3cccc([N+](=O)[O-])c3)o2)cc1-c1ccccc1C)C(=O)O` [Example 440, N-[4-(5-(3-nitrophenyl)furan-2-ylmethoxymethyl)-2-(2-methylphenyl)benzoyl]methionine lithium salt], the inhibition at 0.1 µM came out at 92%.

Consider `CSCC[C@H](NC(=O)c1ccc(COCc2ccc(-c3cccc(C(F)(F)F)c3)o2)cc1-c1ccccc1C)C(=O)O` [Example 441, N-[4-(5-(3-trifluoromethylphenyl)furan-2-ylmethoxymethyl)-2-(2-methylphenyl)benzoyl]methionine lithium salt], for which the inhibition at 0.1 µM amounted to 91%.

Consider `COc1cccc(-c2ccc(COCc3ccc(C(=O)N[C@@H](CCSC)C(=O)O)c(-c4ccccc4C)c3)o2)c1` [Example 442, N-[4-(5-(3-methoxyphenyl)furan-2-ylmethoxymethyl)-2-(2-methylphenyl)benzoyl]methionine lithium salt], for which the inhibition at 0.1 µM worked out at 88%.

Turning to `CSCC[C@H](NC(=O)c1ccc(COCc2ccc(-c3ccc(Cl)cc3)o2)cc1-c1ccccc1C)C(=O)O` [Example 443, N-[4-(5-(4-chlorophenyl)furan-2-ylmethoxmethyl)-2-(2-methylphenyl)benzoyl]methionine lithium salt], the inhibition at 0.1 µM (Table 3, 1 × 10^-7 M) was 97%.

`CSCC[C@H](NC(=O)c1ccc(COCc2ccc(-c3ccc(C(F)(F)F)cc3)o2)cc1-c1ccccc1C)C(=O)O` [Example 445, N-[4-(5-(4-trifluoromethylphenyl)furan-2-ylmethoxymethyl)-2-(2-methylphenyl)benzoyl]methionine lithium salt]: the inhibition at 0.1 µM was determined as 94%.

Turning to `COc1ccc(-c2ccc(COCc3ccc(C(=O)N[C@@H](CCSC)C(=O)O)c(-c4ccccc4C)c3)o2)cc1` [Example 446, N-[4-(5-(4-methoxyphenyl)furan-2-ylmethoxymethyl)-2-(2-methylphenyl)benzoyl]methionine lithium salt], the inhibition at 0.1 µM amounted to 91%.

For `CSCC[C@H](NC(=O)c1ccc(COCc2ccc(-c3ccc(SC)cc3)o2)cc1-c1ccccc1C)C(=O)O` [Example 447, N-[4-(5-(4-methylthiophenyl)furan-2-ylmethoxymethyl)-2-(2-methylphenyl)benzoyl]methionine lithium salt], the inhibition at 0.1 µM stood at 91%.

`CSCC[C@H](NC(=O)c1ccc(COCc2ccc(-c3ccc(C=O)cc3)o2)cc1-c1ccccc1C)C(=O)O` [Example 448, N-[4-(5-(4-formylphenyl)furan-2-ylmethoxymethyl)-2-(2-methylphenyl)benzoyl]methionine lithium salt]: the inhibition at 0.1 µM stood at 92%.

For `CSCC[C@H](NC(=O)c1ccc(COCc2ccc(-c3ccc(C(C)=O)cc3)o2)cc1-c1ccccc1C)C(=O)O` [Example 449, N-[4-(5-(4-acetylphenyl)furan-2-ylmethoxymethyl)-2-(2-methylphenyl)benzoyl]methionine lithium salt], the inhibition at 0.1 µM turned out to be 91%.

`CSCC[C@H](NC(=O)c1ccc(COCc2ccc(-c3ccc(F)c(Cl)c3)o2)cc1-c1ccccc1C)C(=O)O` [Example 450, N-[4-(5-(3-chloro-4-fluorophenyl)furan-2-ylmethoxymethyl)-2-(2-methylphenyl)benzoyl]methionine lithium salt]: the inhibition at 0.1 µM (Table 3, 1 × 10^-7 M) was determined as 96%.

With `CSCC[C@H](NC(=O)c1ccc(CCc2ccccc2-c2ccccc2)cc1-c1ccccc1C)C(=O)[O-].[Li+]` [Example 452], the “% inhibition at 1 × 10^-6 M” value was 96%.

For `CSCC[C@H](NC(=O)c1ccc(C=Cc2ccccc2Oc2ccccc2)cc1-c1ccccc1C)C(=O)[O-].[Li+]` [Example 453], the “% inhibition at 1 × 10^-6 M” value is on record as 90%.

As to `CSCC[C@H](NC(=O)c1ccc(CCc2ccccc2Oc2ccccc2)cc1-c1ccccc1C)C(=O)[O-].[Li+]` [Example 455], the “% inhibition at 1 × 10^-7 M” value (Table 3, 1 × 10^-7 M) is recorded as 83%.

Take `Cc1ccccc1-c1cc(CCc2ccccc2Oc2ccccc2)ccc1C(=O)N[C@@H](CC[S+](C)[O-])C(=O)O` (stereo partly drawn) [Example 456]: the “% inhibition at 1 × 10^-6 M” value was determined as 81%.

As to `CSCC[C@H](NC(=O)c1ccc(C=Cc2ccccc2Cc2ccccc2)cc1-c1ccccc1C)C(=O)[O-].[Li+]` [Example 457], the “% inhibition at 1 × 10^-6 M” value is 92%.

Regarding `CSCC[C@H](NC(=O)c1ccc(CCc2ccccc2Cc2ccccc2)cc1-c1ccccc1C)C(=O)O` [Example 458], where the note is “Table 3, 1 × 10^-7 M”, the “% inhibition at 1 × 10^-7 M” value turned out to be 87%.

On to `CSCC[C@H](NC(=O)c1ccc(CCc2cccc(Oc3ccccc3)c2)cc1-c1ccccc1C)C(=O)[O-].[Li+]` [Example 459], for which, under “Table 3, 1 × 10^-7 M”, the “% inhibition at 1 × 10^-7 M” value amounted to 92%.

As to `Cc1ccccc1-c1cc(CCc2cccc(Oc3ccccc3)c2)ccc1C(=O)N[C@@H](CC[S+](C)[O-])C(=O)O` (stereo partly drawn) [Example 460], the “% inhibition at 1 × 10^-6 M” value amounted to 88%.

Regarding `CSCC[C@H](NC(=O)c1ccc(CCc2ccc(C3CCCCC3)cc2)cc1-c1ccccc1C)C(=O)[O-].[Li+]` [Example 461], the “% inhibition at 1 × 10^-7 M” value (Table 3, 1 × 10^-7 M) is listed as 93%.

As for `CSCC[C@H](NC(=O)c1ccc(CCc2ccc(Oc3ccccc3)cc2)cc1-c1ccccc1C)C(=O)[O-].[Li+]` [Example 462], the “% inhibition at 1 × 10^-7 M” value (Table 3, 1 × 10^-7 M) came to 91%.

In the case of `Cc1ccccc1-c1cc(CCc2ccc(Oc3ccccc3)cc2)ccc1C(=O)N[C@@H](CC[S+](C)[O-])C(=O)O` (stereo partly drawn) [Example 463], the “% inhibition at 1 × 10^-6 M” value came to 91%.

With `CSCC[C@H](NC(=O)c1ccc(/C=C/c2ccc3ccccc3c2)cc1-c1ccccc1C)C(=O)O` [Example 465], the “% inhibition at 1 × 10^-6 M” value worked out at 92%.

Consider `CSCC[C@H](NC(=O)c1ccc(/C=C/c2cccc3ccccc23)cc1-c1ccccc1C)C(=O)O` [Example 466], for which the “% inhibition at 1 × 10^-6 M” value worked out at 93%.

Consider `CSCC[C@H](NC(=O)c1ccc(CCc2cccc3ccccc23)cc1-c1ccccc1C)C(=O)[O-].[Li+]` [Example 467], for which the “% inhibition at 1 × 10^-6 M” value worked out at 97%.

With `CSCC[C@H](NC(=O)c1ccc(CCc2ccc3ccccc3c2)cc1-c1ccccc1C)C(=O)O` [Example 468], the “% inhibition at 1 × 10^-6 M” value amounted to 96%.

With `CSCC[C@H](NC(=O)c1ccc(C=CCc2ccccc2)cc1-c1ccccc1C)C(=O)O` [Example 469], the “% inhibition at 1 × 10^-6 M” value was 92%.

For `CSCC[C@H](NC(=O)c1ccc(CCCc2ccc3ccccc3c2)cc1-c1ccccc1C)C(=O)[O-].[Li+]` [Example 470], the “% inhibition at 1 × 10^-6 M” value is 95%.

`CSCC[C@H](NC(=O)c1ccc(/C=C/CC2CCCCC2)cc1-c1ccccc1C)C(=O)O` [Example 471]: the “% inhibition at 1 × 10^-6 M” value came out at 94%.

Turning to `CSCC[C@H](NC(=O)c1ccc(/C=C/CCc2ccccc2)cc1-c1ccccc1C)C(=O)O` [Example 472], the “% inhibition at 1 × 10^-6 M” value is recorded as 97%.

Turning to `CSCC[C@H](NC(=O)c1ccc(CCCC(=O)c2ccc3ccccc3c2)cc1-c1ccccc1C)C(=O)O` [Example 473], the “% inhibition at 1 × 10^-6 M” value stood at 96%.

For `CSCC[C@H](NC(=O)c1ccc(/C=C/CC(O)c2ccc3ccccc3c2)cc1-c1ccccc1C)C(=O)O` (stereo partly drawn) [Example 474], the “% inhibition at 1 × 10^-6 M” value is on record as 92%.
